The test has as its target almond β-glucosidase. Put plainly: glycosidase inhibition assay with p-nitrophenyl substrate, commercial (Sigma) enzyme. In kind it is biochemical, Prunus dulcis.

Each structure is given as a SMILES string.

Molecule `NC1=NC[C@@H](CCNC(=O)c2cc3c(cn2)[nH]c2ccccc23)N1` [compound 1, (+)-(R)-Tiruchanduramine] returned an IC50 of 1000 µM.

For orientation: IC50 means the concentration that inhibits the measured activity by half. Low readings indicate greater potency, high ones weaker potency.

The values above are taken from PMC8880061, “Synthesis of (+)-(R)-Tiruchanduramine” (Molecules, 2022).
